{"source": "paper PMC8961646", "about": "“Fibroblast Activation Protein Specific Optical Imaging in Non-Small Cell Lung Cancer” (Frontiers in Oncology, 2022)", "key": {"rhFAP [1]": {"target": "T1, rhFAP (Homo sapiens, UniProt Q12884)", "T1 construct": "purchased R&D Systems", "T1 sequence (Q12884 26-760 limits assumed)": "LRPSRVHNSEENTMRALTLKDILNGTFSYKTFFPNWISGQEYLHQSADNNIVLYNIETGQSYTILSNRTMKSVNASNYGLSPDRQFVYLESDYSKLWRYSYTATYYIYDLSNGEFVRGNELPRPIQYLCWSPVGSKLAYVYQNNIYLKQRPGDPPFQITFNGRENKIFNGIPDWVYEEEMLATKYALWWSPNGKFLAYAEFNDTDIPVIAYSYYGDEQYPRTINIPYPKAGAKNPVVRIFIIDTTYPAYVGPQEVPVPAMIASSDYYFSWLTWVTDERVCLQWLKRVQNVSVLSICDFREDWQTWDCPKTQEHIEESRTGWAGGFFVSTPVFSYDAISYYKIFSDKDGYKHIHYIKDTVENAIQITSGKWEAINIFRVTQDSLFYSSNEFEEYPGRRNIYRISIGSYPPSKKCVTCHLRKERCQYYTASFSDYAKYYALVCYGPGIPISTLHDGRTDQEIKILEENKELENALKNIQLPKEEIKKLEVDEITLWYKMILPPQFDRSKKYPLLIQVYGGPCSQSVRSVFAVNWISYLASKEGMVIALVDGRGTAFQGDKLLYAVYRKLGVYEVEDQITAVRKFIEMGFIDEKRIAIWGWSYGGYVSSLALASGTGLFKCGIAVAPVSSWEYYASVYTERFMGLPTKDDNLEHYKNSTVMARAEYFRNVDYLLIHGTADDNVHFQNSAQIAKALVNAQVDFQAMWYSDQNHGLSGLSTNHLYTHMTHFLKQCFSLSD", "assay": "Probe cleavage by recombinant human FAP (fluorescence plate assay, MALDI confirmation)", "type": "biochemical"}, "rhPREP": {"target": "T2, rhPREP (Homo sapiens, UniProt P48147)", "T2 construct": "purchased R&D Systems", "T2 sequence (P48147 1-710)": "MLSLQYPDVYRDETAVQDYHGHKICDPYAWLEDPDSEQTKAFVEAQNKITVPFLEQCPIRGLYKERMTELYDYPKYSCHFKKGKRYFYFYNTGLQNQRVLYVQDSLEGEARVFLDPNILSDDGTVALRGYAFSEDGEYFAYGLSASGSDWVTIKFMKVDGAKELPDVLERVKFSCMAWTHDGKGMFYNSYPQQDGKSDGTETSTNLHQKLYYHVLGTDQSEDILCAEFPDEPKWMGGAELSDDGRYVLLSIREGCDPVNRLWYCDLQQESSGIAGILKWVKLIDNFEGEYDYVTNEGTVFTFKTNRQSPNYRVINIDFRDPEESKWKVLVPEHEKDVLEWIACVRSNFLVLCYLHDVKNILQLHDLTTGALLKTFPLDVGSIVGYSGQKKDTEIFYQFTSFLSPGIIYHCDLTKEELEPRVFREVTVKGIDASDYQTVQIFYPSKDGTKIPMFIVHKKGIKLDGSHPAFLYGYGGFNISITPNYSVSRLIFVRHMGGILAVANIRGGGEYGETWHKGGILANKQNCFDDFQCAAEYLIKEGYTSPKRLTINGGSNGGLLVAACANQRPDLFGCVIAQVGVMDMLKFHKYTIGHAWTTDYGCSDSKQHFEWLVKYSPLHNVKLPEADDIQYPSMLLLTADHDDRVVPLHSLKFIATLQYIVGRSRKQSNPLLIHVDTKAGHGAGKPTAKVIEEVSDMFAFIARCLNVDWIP", "assay": "Probe cleavage by recombinant human PREP (fluorescence plate assay, MALDI confirmation)", "type": "biochemical"}, "[2]": {"tested_on": "FAP+ CAFs from NSCLC patient samples", "assay": "Probe cleavage on cancer associated fibroblasts (CAFs)", "type": "cell-based, human", "settings": "FAP3 5 µM, confluent CAF monolayer in 96 well plate, DPBS, read 480/530 nm for one hour, n=3 run in triplicate", "procedure": "CAFs were isolated from NSCLC patient samples as previously described ([28]). Briefly, tissue samples were minced with forceps and incubated for an hour in prewarmed RPMI media (Gibco) containing collagenase IV [2 mg/ml] (Sigma) and DNase [0.2 mg/ml] (Sigma). Samples were spun at 350 g for 5 minutes and red blood cells were lysed from samples using RBC lysis buffer (BioLegend) in 10 ml for 10 minutes. Following a further spin at 350 g for 5 minutes, cells were seeded in culture flasks in DMEM containing 10% FCS, 1% Penicillin-Streptomycin, 1% L-Glutamine and 10% Insulin Transferrin Selenium (ITS). 24 hours after seeding, non-adherent cells were washed from the flasks. Cells were maintained by standard cell culture methods and by passage 2, the predominant cell type was CAFs, assessed by flow cytometry markers and morphology. CAFs between passage 4-9 were used to assess FAP probes and confirmed to be FAP^hi by flow cytometry.\nCAFs were seeded into 96 well plates in a 100 µl media (complete DMEM as described above) at a density of 1x10^5 cells/ml to form a confluent monolayer within 24 hours. […] Immediately after adding imaging probes, the plate was transferred to the prewarmed spectrophotometer as above and read at 480/530 nm for one hour."}, "MMP 2": {"target": "T3, MMP 2 (Homo sapiens, UniProt P08253)", "T3 sequence (P08253 110-660)": "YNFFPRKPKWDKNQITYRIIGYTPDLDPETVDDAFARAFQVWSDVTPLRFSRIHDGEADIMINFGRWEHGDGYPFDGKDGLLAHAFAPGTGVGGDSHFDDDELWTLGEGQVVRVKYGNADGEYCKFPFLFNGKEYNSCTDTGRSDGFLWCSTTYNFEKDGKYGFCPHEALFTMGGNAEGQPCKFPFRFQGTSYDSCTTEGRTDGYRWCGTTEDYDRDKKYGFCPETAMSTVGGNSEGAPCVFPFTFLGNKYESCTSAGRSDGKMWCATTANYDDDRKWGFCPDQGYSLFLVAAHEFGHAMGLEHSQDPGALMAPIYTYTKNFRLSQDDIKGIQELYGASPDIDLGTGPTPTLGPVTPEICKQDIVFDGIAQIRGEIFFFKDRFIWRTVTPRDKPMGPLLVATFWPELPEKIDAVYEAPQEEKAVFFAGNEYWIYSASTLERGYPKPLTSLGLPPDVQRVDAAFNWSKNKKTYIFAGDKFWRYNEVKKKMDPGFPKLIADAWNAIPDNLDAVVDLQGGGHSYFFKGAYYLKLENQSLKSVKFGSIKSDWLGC", "assay": "Probe assessment against recombinant MMP panel", "type": "biochemical", "settings": "recombinant enzyme, n=2 run in triplicate"}, "MMP 9": {"target": "MMP 9 (Homo sapiens, UniProt P14780)", "sequence (P14780 94-707)": "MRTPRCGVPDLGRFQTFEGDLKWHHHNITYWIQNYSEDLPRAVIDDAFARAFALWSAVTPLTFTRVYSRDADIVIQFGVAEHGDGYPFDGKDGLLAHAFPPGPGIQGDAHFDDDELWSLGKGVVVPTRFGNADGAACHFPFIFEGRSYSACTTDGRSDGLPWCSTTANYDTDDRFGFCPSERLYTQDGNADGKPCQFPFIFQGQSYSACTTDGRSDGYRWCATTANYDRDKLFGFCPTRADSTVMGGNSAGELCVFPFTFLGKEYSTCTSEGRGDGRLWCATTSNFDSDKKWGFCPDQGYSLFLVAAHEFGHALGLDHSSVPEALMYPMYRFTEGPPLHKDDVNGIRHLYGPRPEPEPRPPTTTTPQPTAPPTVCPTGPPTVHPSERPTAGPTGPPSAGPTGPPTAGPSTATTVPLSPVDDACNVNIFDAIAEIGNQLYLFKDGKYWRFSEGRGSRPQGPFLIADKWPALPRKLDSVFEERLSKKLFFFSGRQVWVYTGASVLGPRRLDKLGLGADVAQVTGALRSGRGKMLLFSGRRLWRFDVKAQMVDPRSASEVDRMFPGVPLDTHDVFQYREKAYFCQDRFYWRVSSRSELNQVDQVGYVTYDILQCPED", "assay": "Probe assessment against recombinant MMP panel", "type": "biochemical", "settings": "recombinant enzyme, n=2 run in triplicate"}, "rhFAP [3]": {"target": "T1, rhFAP", "assay": "Enzyme kinetics with varying concentrations of substrate FAP3 in presence of rhFAP", "type": "biochemical", "settings": "increasing concentrations of substrate FAP3 with rhFAP; value (SE)", "experimental": "A calibration curve was determined using the FAP3 concentration (C-terminal cleavage fragment) against RFU to calculate the enzyme kinetic data and is shown below."}, "rhDPPIV": {"target": "rhDPPIV (Homo sapiens, UniProt P27487)", "sequence (P27487 29-766 limits assumed)": "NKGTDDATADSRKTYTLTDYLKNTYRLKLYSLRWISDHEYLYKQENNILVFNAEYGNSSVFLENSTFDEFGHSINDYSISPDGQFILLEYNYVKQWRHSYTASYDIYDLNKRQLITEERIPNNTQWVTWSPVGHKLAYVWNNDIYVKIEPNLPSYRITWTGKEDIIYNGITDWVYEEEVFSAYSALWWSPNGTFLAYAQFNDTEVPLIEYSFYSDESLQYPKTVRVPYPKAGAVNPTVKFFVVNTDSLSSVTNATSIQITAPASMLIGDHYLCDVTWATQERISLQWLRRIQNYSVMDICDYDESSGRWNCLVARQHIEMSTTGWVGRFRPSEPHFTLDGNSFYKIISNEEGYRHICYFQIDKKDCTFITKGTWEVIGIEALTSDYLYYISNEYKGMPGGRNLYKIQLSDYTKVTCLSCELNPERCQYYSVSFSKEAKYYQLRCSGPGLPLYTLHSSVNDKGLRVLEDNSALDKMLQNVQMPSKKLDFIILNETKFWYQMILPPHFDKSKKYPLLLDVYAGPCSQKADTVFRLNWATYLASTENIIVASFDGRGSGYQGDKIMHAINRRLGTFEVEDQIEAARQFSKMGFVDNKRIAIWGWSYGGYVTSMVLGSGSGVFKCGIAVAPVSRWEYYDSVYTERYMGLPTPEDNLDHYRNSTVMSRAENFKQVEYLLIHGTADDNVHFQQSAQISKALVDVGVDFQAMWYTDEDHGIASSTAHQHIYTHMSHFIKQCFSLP", "assay": "Probe cleavage by recombinant human DPP-IV (exopeptidase activity)", "settings": "probe 5 µM, rhDPPIV 0.1 µg/ml, TRIS buffer pH 7.5, read 480/530 nm, n=3 run in triplicate", "procedure": "Recombinant human enzymes [rhFAP (R&D Systems), rhPREP (R&D Systems) and rhDPPIV (Biolegend)] were stored in stocks at -70°C and diluted as required to be used at final concentration of 0.1 µg/ml. Enzymes were aliquoted upon receipt from the supplier and new stocks made from a fresh aliquot as required.\nAssays were undertaken in triplicate in blackened 384 well plates on ice prior to spectral reads. […] All wells contained a final volume of 20 µl to include buffers, inhibitors (if used), substrates and recombinant human enzymes (at a concentration of 0.1 µg/ml unless otherwise stated). […] Plates were sealed with an optical plate sealer (Biolegend) and were read in a preheated spectrophotometer (Synergy Biotek) in monochromator-based mode at 380/460 nm for control substrates and 480/530 nm for synthesised FAP probes."}}, "note": "Non-standard residues stand in square brackets, D forms with d. Residues, ends and D or L forms follow the SMILES beside them. *: point of attachment. 5FAM = O=C1OC2(c3ccc(O)cc3Oc3cc(O)ccc32)c2ccc(C(=O)*)cc21; MethylRed = CN(C)c1ccc(/N=N/c2ccccc2C(=O)*)cc1; AEEA = NCCOCCOCC(=O)O", "data": [{"compound": "CC(C)[C@H](NC(=O)[C@@H](N)CCCCNC(=O)c1ccccc1/N=N/c1ccc(N(C)C)cc1)C(=O)N[C@H](CO)C(=O)N1CCC[C@H]1C(=O)N[C@@H](CC(N)=O)C(=O)N[C@@H](CCC(N)=O)C(=O)NCC(=O)N[C@@H](CCCCNC(=O)c1ccc2c(c1)C(=O)OC21c2ccc(O)cc2Oc2cc(O)ccc21)C(=O)NCCOCCOCC(=O)N[C@H](CCCCN)C(=O)NCCOCCOCC(=O)N[C@H](CCCCN)C(=O)NCCOCCOCC(=O)N[C@H](CCCCN)C(N)=O", "note": "[FAP3] (H-K(MethylRed)V[dS]PNQGK(5FAM)[AEEA][dK][AEEA][dK][AEEA][dK]-NH2)", "values": [{"measurement": "Cleavage of FAP3 by rhFAP confirmed by MALDI", "setting": "rhFAP [1]; MALDI-TOF read-out, cleavage post proline", "value": "confirming the cleavage"}, {"measurement": "FAP specificity (over PREP)", "setting": "rhFAP [1]; probe 5 µM, rhFAP compared with rhPREP, each 0.1 µg/ml", "value": "demonstrated FAP specificity"}, {"measurement": "Cleavage by rhPREP by MALDI", "setting": "rhPREP; MALDI-TOF read-out", "value": "no cleavage"}, {"measurement": "Cleavage by rhPREP (fluorescence signal)", "setting": "rhPREP; probe 5 µM, rhPREP 0.1 µg/ml, TRIS buffer pH 7.5, read 480/530 nm, n=3 run in triplicate", "value": "no rhPREP cleavage"}, {"measurement": "Cleavage by FAP+ CAFs (fluorescence)", "setting": "[2]", "value": "cleaved"}, {"measurement": "Activity with MMP 2", "setting": "MMP 2", "value": "no activity"}, {"measurement": "Activity with MMP 9", "setting": "MMP 9", "value": "no activity"}, {"measurement": "Vmax", "setting": "rhFAP [3]", "value": 109.5, "unit": "RFU/min"}, {"measurement": "Cleavage by DPP-IV (exopeptidase activity, fluorescence signal)", "setting": "rhDPPIV", "value": "no cleavage"}]}]}
